Assay results as given in US20110118236A1, “HETEROCYCLIC COMPOUND” (priority 2008, published 2011).

Target: T1, AMPA receptor (human GluR1 flip/stargazin expressed in CHO-K1 cells) (Homo sapiens, UniProt P42261)
T1 construct: expressed in transfected cells; host or cells: CHO-K1
Test: Assay of AMPA receptor potentiation by compounds, using calcium influx as an indicator
Format: cell-based
Conditions: compound 30 μM with glutamic acid final concentration 3 mM, 100% = glutamic acid 3 mM + 300 μM cyclothiazide, 0% = glutamic acid only, change over 3 minutes
Description: (1) Construction of Expression Genes
Human GluR1 flip cDNA was amplified by PGR using the forward primer ACTGAATTCGCC […] (SEQ ID: 1), and the reverse primer CCGCGGC […] (SEQ ID: 2), which had been artificially synthesized using human brain-derived cDNA (BD Bioscience) as template. The amplified product was digested with the restriction enzymes EcoRI and NotI. (Takara Shuzo Co., Ltd.), and was then incorporated at the same site of peDNA3.1(+) (Invitrogen) to construct; the pcDNA3.1(+)/human GluR1 flip gene. Human stargazin cDNA was amplified by PCR using the forward primer GGTC TCGAGOCCACCATGGOGCTGTTTGATCGAGGTGTTCA (SEQ ID: δ 3), and the reverse primer […] (SEQ ID: 4), which had been artificially synthesized using human hippocampal cDNA as template. The amplified product was digested with the restriction enzymes XhoI and BamHI (Takara Shuzo Co., Ltd.), and was then incorporated at the same site of pcDNA3.1(−) (Invitrogen) to construct the pcDN.A3.1. Zeo(−)/human stargazin gene.
(2) Construction of Cells Expressing GluR1 Flip/Stargazin
CHO-K1 cells passaged in culture media (Ham's F12 media (Invitrogen) supplemented with […] inactivated fetal bovine serum (Morgate), penicillin, and streptomycin (Invitrogen)) were separated using 0.05% trypsin diluted with D-PBS(−), and 0.53 mM EDTA (Invitrogen). The separated cells were suspended in culture media and harvested by centrifugation at 1,000 rpm. The harvested cells were re-suspended in D-PBS(−) and introduced into a 0.4 cm electroporation cuvette (BioRad). The pcDNA3.1(+)/human GluR1 flip gene (5 μg) and pcDNA3.1 Zeo(−)/human stargazin gene (15 μg) were added, and were introduced into the CHO-K1 cells using a Gene Pulser II (BioRad) at 950 μFd and […]. The cells were incubated overnight in culture media, and on the next day 96-well plates were seeded with 250 cells/well using selection media (Zeocin (Invitrogen) in a concentration of 250 μg/mL in culture media). Drug resistant clones were selected, and clones expressing GluR1 flip/stargazin were selected by the following assay using calcium influx as an indicator.
(3) Assay of AMPA receptor potentiation by compounds, using calcium influx as an indicator 96-well black-bottomed clear plates (Costar) were seeded with the CHO-K1/GluR1 flip/stargazin expressing cells (2×10^4 cells/well), and were incubated for 2 days at 37° C. in a CO2 incubator (Sanyo). The cell plate media was removed, and assay buffer A (D-MEM (Invitrogen), 0.1% BSA (Serological Protein, Inc.), and 20 mM HEPES (invitrogen)) was added to a concentration of 50 μL/well. A calcium indicator (Calcium Kit B-Fluo4 for TKB, Dojindo Laboratories) containing 2.5 mM probenecid (Dojindo Laboratories) was added to a concentration of 50 μL/well, and the plates were allowed to stand for 1 hour at 37° C. in a CO2 incubator. The cell plates were set up on a CellLux (PerkinElmer), a 50 pt mixture of 9 mM glutamic acid diluted (final concentration 3 mM) with assay buffer B (HBSS (Invitrogen), 0.1% BSA, and 20 mM HEPES) and the compound to be tested (concentration of compound to be detected: 30 μM) was added, and the change in the level of fluorescence over a period of 3 minutes was determined. The compound activity was calculated using the following equation, wherein the change in fluorescence in wells containing glutamic acid (final concentration 3 mM) and 300 μM cyclothiazide (TOCRIS) was defined as 100%, and the change in fluorescence in wells containing only glutamic acid (final concentration 3 mm) was defined as 0%.
Activity (%)=(X−C)/(T−C)×1.00
T: change in fluorescence in wells containing glutamic acid (final concentration 3 mM) and 300 μM cyclothiazide C: change in fluorescence in wells containing only glutamic acid (final concentration 3 mM) X: change in fluorescence in wells containing compound to be detected

T1 sequence (P42261 19-906 isoform P42261-2 limits assumed): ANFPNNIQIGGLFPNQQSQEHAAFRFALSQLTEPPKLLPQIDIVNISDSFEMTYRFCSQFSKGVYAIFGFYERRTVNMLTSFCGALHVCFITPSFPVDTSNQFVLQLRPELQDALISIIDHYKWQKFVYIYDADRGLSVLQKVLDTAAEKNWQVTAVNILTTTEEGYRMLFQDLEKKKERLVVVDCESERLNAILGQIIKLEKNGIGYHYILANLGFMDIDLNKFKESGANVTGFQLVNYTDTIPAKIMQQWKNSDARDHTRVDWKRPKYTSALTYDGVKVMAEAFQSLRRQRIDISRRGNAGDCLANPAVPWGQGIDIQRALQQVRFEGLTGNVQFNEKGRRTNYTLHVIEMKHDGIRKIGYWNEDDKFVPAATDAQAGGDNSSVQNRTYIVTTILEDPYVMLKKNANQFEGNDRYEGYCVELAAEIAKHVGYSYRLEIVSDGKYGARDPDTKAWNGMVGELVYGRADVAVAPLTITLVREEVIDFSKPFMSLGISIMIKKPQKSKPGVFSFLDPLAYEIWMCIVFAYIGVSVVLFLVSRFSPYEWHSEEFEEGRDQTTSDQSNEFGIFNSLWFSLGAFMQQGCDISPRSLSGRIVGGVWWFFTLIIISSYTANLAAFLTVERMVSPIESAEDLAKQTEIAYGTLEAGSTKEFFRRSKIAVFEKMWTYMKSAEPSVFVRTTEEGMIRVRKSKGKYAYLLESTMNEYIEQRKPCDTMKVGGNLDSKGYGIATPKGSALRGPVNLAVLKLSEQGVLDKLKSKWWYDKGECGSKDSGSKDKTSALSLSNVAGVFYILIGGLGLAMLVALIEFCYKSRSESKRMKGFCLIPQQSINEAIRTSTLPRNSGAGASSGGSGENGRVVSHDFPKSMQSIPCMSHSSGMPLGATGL
T1 sequence (Q9Y698 whole entry partner): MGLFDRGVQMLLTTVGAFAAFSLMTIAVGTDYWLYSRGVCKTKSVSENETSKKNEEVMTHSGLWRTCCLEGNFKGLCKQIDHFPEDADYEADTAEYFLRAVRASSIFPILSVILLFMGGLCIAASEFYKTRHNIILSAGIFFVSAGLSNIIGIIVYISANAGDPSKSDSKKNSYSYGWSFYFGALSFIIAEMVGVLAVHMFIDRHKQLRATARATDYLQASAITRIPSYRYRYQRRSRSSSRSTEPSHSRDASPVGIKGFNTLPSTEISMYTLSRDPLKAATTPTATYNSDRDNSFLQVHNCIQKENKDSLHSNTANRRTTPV

| SMILES | Activity (%) of AMPA receptor potentiation (change in fluorescence, calcium influx) [%] |
| --- | --- |
| O=C(c1csc(Cn2nc(C(F)(F)F)c3c2CCCC3)n1)N1CCCC1 [Example 145, 1-{[4-(Pyrrolidin-1-ylcarbonyl)-1,3-thiazol-2-yl]methyl}-3-(trifluoromethyl)-4,5,6,7-tetrahydro-1-H-indazole] | 85 |
| NC(=O)c1c(NC(=O)Cn2nc(C(F)(F)F)c3c2CNCC3)sc2c1CCCC2 [Example 185, 2-({[3-(Trifluoromethyl)-4,5,6,7-tetrahydro-1H-pyrazolo[3,4-c]pyridin-1-yl]acetyl}amino)-4,5,6,7-tetrahydro-1-benzothiophene-3-carboxamide] | 88 |
| NC(=O)c1c(NC(=O)Cn2nc(C(F)(F)F)c3c2CCNC3)sc2c1CCCC2 [Example 190, 2-({[3-(Trifluoromethyl)-4,5,6,7-tetrahydro-1H-pyrazolo[4,3-c]pyridin-1-yl]acetyl}amino)-4,5,6,7-tetrahydro-1-benzothiophene-3-carboxamide] | 70 |
| COc1ccc(Cl)cc1NC(=O)Cn1nc(C(F)(F)F)c2c1CNCC2 [Example 196, N-(5-Chloro-2-methoxyphenyl)-2-[3-(trifluoromethyl)-4,5,6,7-tetrahydro-1H-pyrazolo[3,4-c]pyridin-1-yl]acetamide] | 80 |
| COc1ccc(Cl)cc1NC(=O)Cn1nc(C(F)(F)F)c2c1CCN(C(C)=O)C2 [Example 226, 2-[5-Acetyl-3-(trifluoromethyl)-4,5,6,7-tetrahydro-1H-pyrazolo[4,3-c]pyridin-1-yl]-N-(5-chloro-2-methoxyphenyl)acetamide] | 74 |
| CNC(=O)N1CCc2c(c(C(F)(F)F)nn2CC(=O)Nc2cc(Cl)ccc2OC)C1 [Example 229, 1-{2-[(5-Chloro-2-methoxyphenyl)amino]-2-oxoethyl}-N-methyl-3-(trifluoromethyl)-1,4,6,7-tetrahydro-5H-pyrazolo[4,3-c]pyridine-5-carboxamide] | 78 |
| FC(F)(F)c1nn(Cc2nnc(-c3cccs3)o2)c2c1CCCC2 [Example 272, 1-[(5-Thiophen-2-yl-1,3,4-oxadiazol-2-yl)methyl]-3-(trifluoromethyl)-4,5,6,7-tetrahydro-1H-indazole] | 86 |
| Cc1cc(C)n2ncc(-c3noc(Cn4nc(C(F)(F)F)c5c4CCCC5)n3)c2n1 [Example 276, 5,7-Dimethyl-3-(5-{[3-(trifluoromethyl)-4,5,6,7-tetrahydro-1H-indazol-1-yl]methyl}-1,2,4-oxadiazol-3-yl)pyrazolo[1,5-a]pyrimidine] | 79 |

Further lines, results first:

| Activity (%) of AMPA receptor potentiation (change in fluorescence, calcium influx) [%] | SMILES |
| --- | --- |
| 75 | FC(F)(F)c1nn(Cc2nc(-c3cnccn3)no2)c2c1CCCC2 [Example 277, 1-[(3-Pyrazin-2-yl-1,2,4-oxadiazol-5-yl)methyl]-3-(trifluoromethyl)-4,5,6,7-tetrahydro-1H-indazole] |
| 82 | Cc1cc(C(F)(F)F)n2ncc(-c3noc(Cn4nc(C(F)(F)F)c5c4CCC5)n3)c2n1 [Example 278] |
| 62 | FC(F)(F)c1nn(Cc2nc(-c3cccs3)no2)c2c1COCC2 [Example 279, 1-[(3-Thiophen-2-yl-1,2,4-oxadiazol-5-yl)-methyl]-3-(trifluoromethyl)-1,4,6,7-tetrahydropyrano[4,3-c]pyrazole] |
| 86 | CSc1sc(C(=O)NCCn2nc(C(F)(F)F)c3c2CCCC3)c2nc(C)n(C)c12 [Example 280, 1,2-Dimethyl-6-(methylsulfanyl)-N-{2-[3-(trifluoromethyl)-4,5,6,7-tetrahydro-1H-indazol-1-yl]ethyl}-1H-thieno[3,4-d]imidazole-4-carboxamide] |
| 76 | Cc1cc(C(F)(F)F)n2ncc(-c3noc(Cn4nc(C(F)(F)F)c5c4CCCC5)n3)c2n1 [Example 283, 5-Methyl-7-(trifluoromethyl)-3-(5-{[3-(trifluoromethyl)-4,5,6,7-tetrahydro-1H-indazol-1-yl]methyl}-1,2,4-oxadiazol-3-yl)pyrazolo[1,5-a]pyrimidine] |
| 68 | CSc1sc(C(=O)NCCn2nc(C(F)(F)F)c3c2CCCC3)c2c1C(O)CCC2 (centres unmarked) [Example 287, 4-Hydroxy-3-(methylsulfanyl)-N-{2-[3-(trifluoromethyl)-4,5,6,7-tetrahydro-1H-indazol-1-yl]ethyl}-4,5,6,7-tetrahydro-2-benzothiophene-1-carboxamide] |
